Target: T1, human recombinant HDAC6 (Homo sapiens, UniProt Q9UBN7)
T1 construct: purchased Calbiochem 382180
T1 sequence (Q9UBN7 1-1215): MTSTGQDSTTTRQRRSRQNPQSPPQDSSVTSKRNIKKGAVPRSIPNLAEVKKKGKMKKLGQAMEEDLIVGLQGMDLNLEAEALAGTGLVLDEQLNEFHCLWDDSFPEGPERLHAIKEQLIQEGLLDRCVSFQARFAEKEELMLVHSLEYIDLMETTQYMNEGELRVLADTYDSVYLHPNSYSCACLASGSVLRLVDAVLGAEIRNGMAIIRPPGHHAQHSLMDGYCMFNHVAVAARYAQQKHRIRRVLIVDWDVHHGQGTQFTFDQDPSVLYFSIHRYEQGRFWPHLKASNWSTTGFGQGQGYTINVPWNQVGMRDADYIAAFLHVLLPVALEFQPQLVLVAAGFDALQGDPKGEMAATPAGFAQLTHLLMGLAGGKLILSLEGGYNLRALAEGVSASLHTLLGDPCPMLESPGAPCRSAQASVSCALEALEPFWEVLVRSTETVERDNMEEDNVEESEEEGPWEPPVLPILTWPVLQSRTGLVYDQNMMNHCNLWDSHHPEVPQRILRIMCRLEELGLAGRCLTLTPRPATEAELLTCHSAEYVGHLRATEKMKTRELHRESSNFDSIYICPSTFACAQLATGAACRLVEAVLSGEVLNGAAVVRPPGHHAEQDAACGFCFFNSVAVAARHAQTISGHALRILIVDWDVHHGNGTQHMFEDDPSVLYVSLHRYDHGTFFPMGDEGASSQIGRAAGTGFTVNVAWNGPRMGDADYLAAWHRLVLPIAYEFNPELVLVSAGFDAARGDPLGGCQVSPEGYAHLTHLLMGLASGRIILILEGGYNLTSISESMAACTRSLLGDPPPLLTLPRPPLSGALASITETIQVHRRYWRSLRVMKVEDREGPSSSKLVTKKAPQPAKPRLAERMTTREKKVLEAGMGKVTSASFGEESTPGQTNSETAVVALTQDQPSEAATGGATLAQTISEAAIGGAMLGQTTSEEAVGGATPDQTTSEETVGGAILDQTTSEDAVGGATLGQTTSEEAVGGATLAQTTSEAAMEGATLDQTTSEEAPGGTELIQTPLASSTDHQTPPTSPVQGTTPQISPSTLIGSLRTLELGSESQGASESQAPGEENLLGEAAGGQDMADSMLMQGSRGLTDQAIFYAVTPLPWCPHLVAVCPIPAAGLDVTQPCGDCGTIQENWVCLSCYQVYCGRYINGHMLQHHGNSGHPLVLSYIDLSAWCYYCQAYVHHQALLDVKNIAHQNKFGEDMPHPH
Assay: HDAC6 enzyme activity inhibition assay (HDAC Fluorimetric Drug Discovery Kit)
Format: biochemical
Details: for HDAC6 selectivity (fold): HDAC6 over HDAC1; for IC50: human recombinant HDAC6, same protocol as HDAC1, read-out: HDAC6
Protocol: In order to examine the HDAC6 selectivity of the compounds of formula I of the present invention by HDAC1 and HDAC6 enzymatic activity inhibition assays, an experiment was performed using a conventional substance as a control.
HDAC enzyme activity was measured using a HDAC Fluorimetric Drug Discovery Kit (BML-AK511, 516, Enzo Life Science). For the HDAC1 enzyme activity test, human recombinant HDAC1 (BML-SE456) was used as an enzyme source, and Fluor de Lys®-“SIRT1 (BNL-KI177) was used as a substrate. A 5-fold dilution of the compound was seeded into a 96-well plate, and then 0.3 μg of the enzyme and 10 μM of the substrate were added to each well of the plate and allowed to react at 30° C. for 60 minutes. Then, Fluor de Lys®-Developer II (BML-KI176) was added thereto and allowed to react for 30 minutes, after which the fluorescence value (Ex 360, Em 460) was measured using a multi-plate reader (Flexstation 3, Molecular Device). The HDAC6 enzyme was tested using human recombinant HDAC6 (382180) (Calbiochem) according to the same protocol as the HDAC1 enzyme activity test method. Based on the resulting values, each IC5, value was calculated using GraphPad Prism4.0 program.

| Compound | HDAC6 selectivity (fold) | IC50 [µM] |
| --- | --- | --- |
| CN1CCN(C(=O)N(Cc2ccc(-c3nnc(C(F)(F)F)o3)cc2)c2ccccc2)CC1 [Compound 21285, 4-methyl-N-phenyl-N-(4-(5-(trifluoromethyl)-1,3,4-oxadiazol-2-yl)benzyl)piperazine-1-carboxamide] | 91 | 0.11 |
| O=C(N1CCOCC1)N(Cc1ccc(-c2nnc(C(F)(F)F)o2)cc1F)c1ccccc1 [Compound 21318, N-(2-fluoro-4-(5-(trifluoromethyl)-1,3,4-oxadiazol-2-yl)benzyl)-N-phenylmorpholine-4-carboxamide] | 145 | 0.069 |
| O=C(N1CCOCC1)N(Cc1ccc(-c2nnc(C(F)(F)F)o2)c(F)c1)c1ccccc1 [Compound 21319, N-(3-fluoro-4-(5-(trifluoromethyl)-1,3,4-oxadiazol-2-yl)benzyl)-N-phenylmorpholine-4-carboxamide] | 52 | 0.192 |
| O=C(N1CCOCC1)N(Cc1ccc(-c2nnc(C(F)F)o2)cc1)c1ccccc1 [Compound 21325, N-(4-(5-(difluoromethyl)-1,3,4-oxadiazol-2-yl)benzyl)-N-phenylmorpholine-4-carboxamide] | 204 | 0.049 |
| O=C(N1CCOCC1)N(Cc1ccc(CCc2nnc(C(F)(F)F)o2)cc1)c1ccccc1 [Compound 21327, N-phenyl-N-(4-(2-(5-(trifluoromethyl)-1,3,4-oxadiazol-2-yl)ethyl)benzyl)morpholine-4-carboxamide] | 1 |  |
| O=C(N1CCOCC1)N(Cc1cccc(-c2nnc(C(F)(F)F)o2)c1)c1ccccc1 [Compound 21329, N-phenyl-N-(3-(5-(trifluoromethyl)-1,3,4-oxadiazol-2-yl)benzyl)morpholine-4-carboxamide] | 1 |  |
| O=C(N1CCOCC1)N(Cc1ccc(-c2nnc(C(F)(F)F)o2)nc1)c1ccccc1 [Compound 21333, N-phenyl-N-((6-(5-(trifluoromethyl)-1,3,4-oxadiazol-2-yl)pyridin-3-yl)methyl)morpholine-4-carboxamide] | 1 |  |
| O=C(N1CCOCC1)N(Cc1ccc(-c2nnc(C(F)(F)F)o2)cn1)c1ccccc1 [Compound 21336, N-phenyl-N-((5-(5-(trifluoromethyl)-1,3,4-oxadiazol-2-yl)pyridin-2-yl)methyl)morpholine-4-carboxamide] | 105 | 0.095 |
| O=C(N1CCOCC1)N(Cc1ccc(-c2nnc(C(F)F)o2)cc1F)c1ccccc1 [Compound 21337, N-(4-(5-(difluoromethyl)-1,3,4-oxadiazol-2-yl)-2-fluorobenzyl)-N-phenylmorpholine-4-carboxamide] | 357 | 0.028 |
| O=C(NC1CCC1)N(Cc1ccc(-c2nnc(C(F)(F)F)o2)cc1)c1ccccc1 [Compound 21340, 3-Cyclobutyl-1-phenyl-1-(4-(5-(trifluoromethyl)-1,3,4-oxadiazol-2-yl)benzyl)urea] | 12 | 0.836 |
| O=C(NC1CCCC1)N(Cc1ccc(-c2nnc(C(F)(F)F)o2)cc1)c1ccccc1 [Compound 21341, 3-Cyclopentyl-1-phenyl-1-(4-(5-(trifluoromethyl)-1,3,4-oxadiazol-2-yl)benzyl)urea] | 8 | 1.19 |
| O=C(NC1CCCCC1)N(Cc1ccc(-c2nnc(C(F)(F)F)o2)cc1)c1ccccc1 [Compound 21342, 3-Cyclohexyl-1-phenyl-1-(4-(5-(trifluoromethyl)-1,3,4-oxadiazol-2-yl)benzyl)urea] | 5 | 1.99 |
| COc1cc(-c2nnc(C(F)(F)F)o2)ccc1CN(C(=O)N1CCOCC1)c1ccccc1 [Compound 21343, N-(2-methoxy-4-(5-(trifluoromethyl)-1,3,4-oxadiazol-2-yl)benzyl)-N-phenylmorpholine-4-carboxamide] | 1 | 10.7 |
| O=C(N1CCN(Cc2ccccc2)CC1)N(Cc1ccc(-c2nnc(C(F)(F)F)o2)cc1)c1ccccc1 [Compound 21344, 4-Benzyl-N-phenyl-N-(4-(5-(trifluoromethyl)-1,3,4-oxadiazol-2-yl)benzyl)piperazine-1-carboxamide] | 12 | 0.83 |
| COCCN1CCN(C(=O)N(Cc2ccc(-c3nnc(C(F)(F)F)o3)cc2)c2ccccc2)CC1 [Compound 21345, 4-(2-Methoxyethyl)-N-phenyl-N-(4-(5-(trifluoromethyl)-1,3,4-oxadiazol-2-yl)benzyl)piperazine-1-carboxamide] | 54 | 0.185 |
| CCN1CCN(C(=O)N(Cc2ccc(-c3nnc(C(F)(F)F)o3)cc2)c2ccccc2)CC1 [Compound 21346, 4-Ethyl-N-phenyl-N-(4-(5-(trifluoromethyl)-1,3,4-oxadiazol-2-yl)benzyl)piperazine-1-carboxamide] | 58 | 0.173 |
| CC(C)N1CCN(C(=O)N(Cc2ccc(-c3nnc(C(F)(F)F)o3)cc2)c2ccccc2)CC1 [Compound 21347, 4-Isopropyl-N-phenyl-N-(4-(5-(trifluoromethyl)-1,3,4-oxadiazol-2-yl)benzyl)piperazine-1-carboxamide] | 55 | 0.183 |
| O=C(N1CCOCC1)N(CCc1ccc(-c2nnc(C(F)(F)F)o2)cc1)c1ccccc1 [Compound 21348, N-phenyl-N-(4-(5-(trifluoromethyl)-1,3,4-oxadiazol-2-yl)phenethyl)morpholine-4-carboxamide] | 1 | 8.36 |
| O=C(N1CCC1)N(Cc1ccc(-c2nnc(C(F)(F)F)o2)cc1)c1ccccc1 [Compound 21349, N-phenyl-N-(4-(5-(trifluoromethyl)-1,3,4-oxadiazol-2-yl)benzyl)azetidine-1-carboxamide] | 23 | 0.43 |
| O=C(N1CCCC1)N(Cc1ccc(-c2nnc(C(F)(F)F)o2)cc1)c1ccccc1 [Compound 21350, N-phenyl-N-(4-(5-(trifluoromethyl)-1,3,4-oxadiazol-2-yl)benzyl)pyrrolidine-1-carboxamide] | 19 | 0.53 |
| O=C(N1CCCCC1)N(Cc1ccc(-c2nnc(C(F)(F)F)o2)cc1)c1ccccc1 [Compound 21351, N-phenyl-N-(4-(5-(trifluoromethyl)-1,3,4-oxadiazol-2-yl)benzyl)piperidine-1-carboxamide] | 38 | 0.261 |
| CC(C)(C)OC(=O)N1CCN(C(=O)N(Cc2ccc(-c3nnc(C(F)(F)F)o3)cc2)c2ccccc2)CC1 [Compound 21352, Tert-butyl 4-(phenyl(4-(5-(trifluoromethyl)-1,3,4-oxadiazol-2-yl)benzyl)carbamoyl)piperazine-1-carboxylate] | 9 | 1.1 |
| CCNC(=O)N(Cc1ccc(-c2nnc(C(F)(F)F)o2)cc1)c1ccccc1 [Compound 21353, 3-Ethyl-1-phenyl-1-(4-(5-(trifluoromethyl)-1,3,4-oxadiazol-2-yl)benzyl)urea] | 14 | 0.72 |
| CCCNC(=O)N(Cc1ccc(-c2nnc(C(F)(F)F)o2)cc1)c1ccccc1 [Compound 21354, 1-Phenyl-3-propyl-1-(4-(5-(trifluoromethyl)-1,3,4-oxadiazol-2-yl)benzyl)urea] | 26 | 0.38 |

From patent US10717716B2, “1,3,4-oxadiazole derivative compounds as histone deacetylase 6 inhibitor, and the pharmaceutical composition comprising the same” (Chong Kun Dang Pharmaceutical Corp., priority 2015, dated 2020)
